Our source for the IC50 values is patent US20130040935A1, “CYCLIC KETO-ENOLS FOR THERAPY” (BAYER INTELLECTUAL PROPERTY GMBH, priority 2010, published 2013).

In test [1] the target is T1, human ACC1 (acetyl-coenzyme A carboxylase alpha transcript variant 1) (Homo sapiens, UniProt Q13085).
T1 construct: FLAG (C); made in house; host or cells: baculovirus-infected insect cells (Hi5)
The experiment in a line: Human ACC1 enzyme assay, Assay B1 (ADP-Glo). It is filed as biochemical.

For test [2], the target named is human ACC2 (acetyl-coenzyme A carboxylase 2) (Homo sapiens, UniProt O00763). The experiment in a line: Human ACC2 enzyme assay, Assay B2 (ADP-Glo).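 Further: human ACC2 activity read as ADP product, detected by luciferase glow luminescence after residual ATP removal, enzyme near 2 ng/µl in linear range, detection steps at 22 °C.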 For orientation: In ADP-Glo the light output rises with the ADP produced.
Setting [3] is: Assay B1, read-out: ACC 1 (=B1) IC50.

Like-named read-outs stand apart in the source and are kept apart here.

human ACC2 (acetyl-coenzyme A carboxylase 2), sequence (O00763 27-2458 limits assumed): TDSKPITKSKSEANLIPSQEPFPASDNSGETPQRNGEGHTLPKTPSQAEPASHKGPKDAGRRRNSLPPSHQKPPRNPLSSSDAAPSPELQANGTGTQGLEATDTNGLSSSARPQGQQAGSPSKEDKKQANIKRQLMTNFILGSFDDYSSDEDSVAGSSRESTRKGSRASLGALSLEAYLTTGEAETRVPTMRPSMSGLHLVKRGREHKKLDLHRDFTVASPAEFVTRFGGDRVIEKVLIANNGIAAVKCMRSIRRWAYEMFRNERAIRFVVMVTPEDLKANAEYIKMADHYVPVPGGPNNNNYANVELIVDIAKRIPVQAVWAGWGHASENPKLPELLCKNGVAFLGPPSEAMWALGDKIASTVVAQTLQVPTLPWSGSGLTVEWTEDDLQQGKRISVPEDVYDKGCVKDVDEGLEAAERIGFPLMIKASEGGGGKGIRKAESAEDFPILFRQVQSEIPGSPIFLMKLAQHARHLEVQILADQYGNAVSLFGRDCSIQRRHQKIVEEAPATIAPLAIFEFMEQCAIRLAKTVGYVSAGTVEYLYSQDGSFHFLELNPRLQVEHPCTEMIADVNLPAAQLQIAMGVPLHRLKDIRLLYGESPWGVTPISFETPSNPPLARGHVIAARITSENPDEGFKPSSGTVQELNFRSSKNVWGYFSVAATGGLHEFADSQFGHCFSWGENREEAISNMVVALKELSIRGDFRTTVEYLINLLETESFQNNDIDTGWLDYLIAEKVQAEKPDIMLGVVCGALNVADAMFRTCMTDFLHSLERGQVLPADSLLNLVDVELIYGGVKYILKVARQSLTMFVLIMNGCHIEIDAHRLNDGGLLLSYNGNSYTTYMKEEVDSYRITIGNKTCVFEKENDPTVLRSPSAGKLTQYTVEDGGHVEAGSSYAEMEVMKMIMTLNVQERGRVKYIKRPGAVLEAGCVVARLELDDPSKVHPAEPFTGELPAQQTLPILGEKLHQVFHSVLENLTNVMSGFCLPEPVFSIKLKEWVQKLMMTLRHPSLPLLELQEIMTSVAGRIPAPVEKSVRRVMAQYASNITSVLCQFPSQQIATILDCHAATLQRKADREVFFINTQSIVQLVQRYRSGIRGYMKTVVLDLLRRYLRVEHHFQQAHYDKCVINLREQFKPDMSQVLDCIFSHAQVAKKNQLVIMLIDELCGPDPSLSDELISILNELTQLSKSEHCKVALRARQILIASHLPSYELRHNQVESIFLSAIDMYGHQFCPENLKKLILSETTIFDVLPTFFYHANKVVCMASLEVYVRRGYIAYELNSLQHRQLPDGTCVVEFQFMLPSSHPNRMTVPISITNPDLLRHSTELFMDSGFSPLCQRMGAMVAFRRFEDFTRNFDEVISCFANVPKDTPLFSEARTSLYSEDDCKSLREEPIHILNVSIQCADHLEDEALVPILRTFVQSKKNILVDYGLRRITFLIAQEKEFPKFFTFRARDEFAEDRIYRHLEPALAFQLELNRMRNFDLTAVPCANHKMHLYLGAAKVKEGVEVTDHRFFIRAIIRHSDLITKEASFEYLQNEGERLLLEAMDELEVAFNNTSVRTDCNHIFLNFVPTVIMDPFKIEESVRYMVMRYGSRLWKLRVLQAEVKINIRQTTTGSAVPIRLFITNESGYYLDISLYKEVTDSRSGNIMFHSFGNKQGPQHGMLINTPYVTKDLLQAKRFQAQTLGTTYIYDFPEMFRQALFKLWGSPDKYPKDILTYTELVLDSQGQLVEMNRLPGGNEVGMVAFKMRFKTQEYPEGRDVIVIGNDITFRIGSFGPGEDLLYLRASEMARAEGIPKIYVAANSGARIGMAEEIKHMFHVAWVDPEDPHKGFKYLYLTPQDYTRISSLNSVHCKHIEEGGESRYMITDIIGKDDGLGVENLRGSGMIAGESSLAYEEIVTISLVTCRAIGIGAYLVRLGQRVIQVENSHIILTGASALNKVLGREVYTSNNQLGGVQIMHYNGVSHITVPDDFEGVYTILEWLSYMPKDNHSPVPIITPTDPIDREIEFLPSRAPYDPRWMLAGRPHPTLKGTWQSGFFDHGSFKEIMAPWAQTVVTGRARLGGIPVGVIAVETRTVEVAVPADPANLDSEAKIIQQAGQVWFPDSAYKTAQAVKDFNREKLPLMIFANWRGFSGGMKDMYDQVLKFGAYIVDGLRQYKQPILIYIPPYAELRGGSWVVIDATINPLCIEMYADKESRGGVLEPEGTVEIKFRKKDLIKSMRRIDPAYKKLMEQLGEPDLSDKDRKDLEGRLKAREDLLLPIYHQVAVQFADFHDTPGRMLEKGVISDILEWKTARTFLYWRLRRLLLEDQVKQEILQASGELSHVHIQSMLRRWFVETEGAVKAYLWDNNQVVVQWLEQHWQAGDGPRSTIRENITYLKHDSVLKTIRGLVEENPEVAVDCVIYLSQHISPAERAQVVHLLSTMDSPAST

What is called IC50 is the point on the concentration scale where inhibition reaches its midpoint. Consider `CCOCCO[C@@H]1CC[C@@]2(C1)NC(=O)C(c1cc(-c3ccc(Cl)cc3)ccc1C)=C2O` (relative stereo) [1-50, rel-(5R,7S)-3-(4′-chloro-4-methylbiphenyl-3-yl)-7-(2-ethoxyethoxy)-4-hydroxy-1-azaspiro[4.4]non-3-en-2-one], for which the IC50 was 11800 nM in test [1] (setting [3]) and over 20000 nM in test [2].

`COCCO[C@@H]1CCC[C@]2(C1)NC(=O)C(c1cc(-c3ccc(Cl)cc3)ccc1Cl)=C2O` (relative stereo) [1-74, rel-(5R,7R)-3-(4,4′-dichlorobiphenyl-3-yl)-4-hydroxy-7-(2-methoxyethoxy)-1-azaspiro[4.5]dec-3-en-2-one]: the half-inhibitory concentration (IC50) is 2420 nM in test [1] and over 20000 nM in test [2].

For the compound `Cc1ccc(-c2ccc(Cl)cc2)cc1C1=C(O)CN(C(C)C)C1=O` [1-17, 3-(4′-chloro-4-methylbiphenyl-3-yl)-4-hydroxy-1-(propan-2-yl)-1,5-dihydro-2H-pyrrol-2-one], the half-inhibitory concentration (IC50) turned out to be 553 nM in test [1] and 11400 nM in test [2].

Consider `Cc1ccc(-c2ccc(Cl)cc2)cc1C1=C(O)CN(C2CC2)C1=O` [1-18, 3-(4′-chloro-4-methylbiphenyl-3-yl)-1-cyclopropyl-4-hydroxy-1,5-dihydro-2H-pyrrol-2-one], for which the half-inhibitory concentration (IC50) in test [1] (setting [3]) amounted to 982 nM; in test [2], 16400 nM.

Consider `Cc1ccc(-c2ccc(Cl)cc2)cc1C1=C(O)C(C)N(C(C)C)C1=O` (stereo not shown) [1-19, 3-(4′-chloro-4-methylbiphenyl-3-yl)-4-hydroxy-5-methyl-1-(propan-2-yl)-1,5-dihydro-2H-pyrrol-2-one], for which the IC50 was 532 nM in test [1] (setting [3]) and at least 20000 nM in test [2].

For `Cc1ccc(-c2ccc(Cl)cc2)cc1C1=C(O)C2(Cc3ccccc3C2)NC1=O` [1-25, 4′-(4′-chloro-4-methylbiphenyl-3-yl)-3′-hydroxy-1,3-dihydrospiro[inden-2,2′-pyrrol]-5′(1′H)-one], the IC50 in test [1] (setting [3]) was found to be 288 nM; in test [2] it was 3780 nM.

For the compound `CCOC1CCC2(CC1)NC(=O)C(c1cc(-c3ccc(Cl)cc3)ccc1C)=C2O` (stereo not shown) [1-28, 3-(4′-chloro-4-methylbiphenyl-3-yl)-8-ethoxy-4-hydroxy-1-azaspiro[4.5]dec-3-en-2-one], the IC50 in test [1] (setting [3]) was determined as 438 nM; in test [2] it was 2110 nM.

As for `Cc1ccc(-c2ccc(F)cc2)c(C)c1C1=C(O)C2(CCC(OCC(F)(F)F)CC2)NC1=O` (stereo not shown) [1-31, 3-(4′-fluoro-2,4-dimethylbiphenyl-3-yl)-4-hydroxy-8-(2,2,2-trifluoroethoxy)-1-azaspiro[4.5]dec-3-en-2-one], the IC50 in test [1] came out at 811 nM; in test [2] it was 7890 nM.

As for `Cc1ccc(-c2ccc(F)cc2)c(C)c1C1=C(O)C2(CCCCC2)NC1=O` [1-40, 3-(4′-fluoro-2,4-dimethylbiphenyl-3-yl)-4-hydroxy-1-azaspiro[4.5]dec-3-en-2-one], the concentration for half-maximal inhibition (IC50) in test [1] (setting [3]) is 1320 nM; in test [2], over 20000 nM.

Consider `COCC1(C)NC(=O)C(c2cc(-c3ccc(Cl)cc3)ccc2C)=C1O` (stereo not shown) [1-46, 3-(4′-chloro-4-methylbiphenyl-3-yl)-4-hydroxy-5-(methoxymethyl)-5-methyl-1,5-dihydro-2H-pyrrol-2-one], for which the IC50 in test [1] is 1130 nM; in test [2], over 20000 nM.

On to `COCCC1CCCC2(C1)NC(=O)C(c1c(C)ccc(-c3ccc(Cl)cc3)c1C)=C2O` (stereo not shown) [1-55, 3-(4′-chloro-2,4-dimethylbiphenyl-3-yl)-4-hydroxy-7-(2-methoxyethyl)-1-azaspiro[4.5]dec-3-en-2-one], for which the half-maximal inhibitory concentration (IC50) in test [1] (setting [3]) is 924 nM; in test [2], 3290 nM.

As to `O=C1NC2(CCC3(CC2)OCCCO3)C(O)=C1c1cc(-c2ccc(Cl)cc2)ccc1Cl` [1-58, 3-(4,4′-dichlorobiphenyl-3-yl)-4-hydroxy-9,13-dioxa-1-azadispiro[4.2.5.2]pentadec-3-en-2-one], the IC50 in test [1] was determined as 434 nM; in test [2] it was 19900 nM.

Take `Cc1ccc(-c2ccc(Cl)cc2)cc1C1=C(O)C2(CCC3(CC2)OCCCO3)NC1=O` [1-59, 3-(4′-chloro-4-methylbiphenyl-3-yl)-4-hydroxy-9,13-dioxa-1-azadispiro[4.2.5.2]pentadec-3-en-2-one]: the IC50 in test [1] was determined as 261 nM; in test [2], 11600 nM.

With `Cc1ccc(-c2ccc(Cl)cc2)cc1C1=C(O)C2(CCC3(CC2)OCCO3)NC1=O` [1-60, 11-(4′-chloro-4-methylbiphenyl-3-yl)-12-hydroxy-1,4-dioxa-9-azadispiro[4.2.4.2]tetradec-11-en-10-one], the IC50 in test [1] is 189 nM; in test [2] it was 5990 nM.

For the compound `O=C1NC2(CCC3(CC2)OCCO3)C(O)=C1c1cc(-c2ccc(Cl)cc2)ccc1Cl` [1-61, 11-(4,4′-dichlorobiphenyl-3-yl)-12-hydroxy-1,4-dioxa-9-azadispiro[4.2.4.2]tetradec-11-en-10-one], the IC50 in test [1] turned out to be 88 nM; in test [2] it was 9040 nM.

With `COC1CCC2(CC1)NC(=O)C(c1cc(-c3ccc(Cl)c(Cl)c3)ccc1C)=C2O` (stereo not shown) [1-81, 3-(3′,4′-dichloro-4-methylbiphenyl-3-yl)-4-hydroxy-8-methoxy-1-azaspiro[4.5]dec-3-en-2-one], 2610 nM corresponded to half-maximal inhibition in test [2] (IC50).

With `CN1C(=O)C(c2cc(-c3ccc(Cl)cc3)ccc2Cl)C(=O)N1C` [8-15, 4-(4,4′-dichlorobiphenyl-3-yl)-1,2-dimethyl-1H-pyrazole-3,5(2H,4H)-dione], the IC50 in test [1] (setting [3]) was 5600 nM.

Turning to `Cc1ccc(-c2ccc(Cl)cc2)cc1C1C(=O)N2C3CCC(C3)N2C1=O` (stereo not shown) [8-16, 2-(4′-chloro-4-methylbiphenyl-3-yl)tetrahydro-1H-5,8-methanopyrazolo[1,2-a]pyridazine-1,3(2H)-dione], the IC50 in test [1] was 593 nM.

Turning to `O=C1C(c2cc(-c3ccc(Cl)cc3)ccc2Cl)C(=O)N2C3CCC(C3)N12` (stereo not shown) [8-17, 2-(4,4′-dichlorobiphenyl-3-yl)tetrahydro-1H-5,8-methanopyrazolo[1,2-a]pyridazine-1,3(2H)-dione], the 50% inhibitory concentration (IC50) in test [1] (setting [3]) is 1450 nM.

Turning to `Cc1ccc(-c2ccc(Cl)cc2)cc1-c1c(O)c2ccccc2[nH]c1=O` [9-5, 3-(4′-chloro-4-methylbiphenyl-3-yl)-4-hydroxyquinolin-2(1H)-one], the IC50 in test [1] (setting [3]) was found to be 661 nM.

For `Cc1ccc(-c2ccc(Cl)cc2)cc1-c1c(O)c2ccc(F)cc2[nH]c1=O` [9-8, 3-(4′-chloro-4-methylbiphenyl-3-yl)-7-fluoro-4-hydroxyquinolin-2(1H)-one], in test [1] (setting [3]), the IC50 is 174 nM.

Turning to `Cc1ccc(-c2ccc(F)cc2)cc1-c1c(O)c2ccc(F)cc2[nH]c1=O` [9-9, 7 fluoro-3-(4′-fluoro-4-methylbiphenyl-3-yl)-4-hydroxyquinolin-2(1H)-one], in test [1] (setting [3]), the IC50 was 2940 nM.

Take `Cc1ccc(-c2ccc(C(F)(F)F)cc2)cc1-c1c(O)c2ccc(F)cc2[nH]c1=O` [9-10]: in test [1] (setting [3]), the IC50 stood at 1410 nM.

`CC1(C)OC(=O)C(c2cc(-c3ccc(Cl)cc3)ccc2Cl)=C(O)C1(C)C` [10-1, 3-(4,4′-dichlorobiphenyl-3-yl)-4-hydroxy-5,5,6,6-tetramethyl-5,6-dihydro-2H-pyran-2-one]: the half-maximal inhibitory concentration (IC50) in test [1] was 1070 nM.

On to `Cc1ccc(-c2ccc(Cl)cc2)cc1C1=C(O)C(C)(C)C(C)(C)OC1=O` [10-2, 3-(4′-chloro-4-methylbiphenyl-3-yl)-4-hydroxy-5,5,6,6-tetramethyl-5,6-dihydro-2H-pyran-2-one], for which, in test [1], the IC50 was 760 nM.
